Laboratory results taken from PubChem BioAssay AID504765 (Sanford-Burnham Center for Chemical Genomics, 2011).
Calls of active or inactive are those of the source. The rule behind the calls is not given here.

target: glucose-6-phosphate dehydrogenase-6-phosphogluconolactonase (Plasmodium falciparum 3D7); experiment: concentration-dependent PfGluPho enzyme inhibition – biochemical, fluorescence intensity, dose response (AID 504765); settings: Recombinant PfG6PD enzyme, fluorescence intensity (NADPH)

First: CSc1nnc(NC(=O)c2ccc3c(c2)OCO3)s1
Second: Cc1cccc(C(=O)Nc2nnc(S(=O)(=O)N3CCOCC3)s2)c1
The IC50 of the first is 2.6-fold lower: 2.82 µM for the first, 7.44 µM for the second. The first is the more potent here.

Compared with C=C1C(=O)O[C@@H]2C[C@@H](C)[C@@H]3C=CC(=O)[C@@]3(C)[C@@H](OC(=O)CC(=O)O[C@H]3[C@@H]4C(=C)C(=O)O[C@@H]4C[C@@H](C)[C@@H]4C=CC(=O)[C@]43C)[C@H]12, C=CCN1C=C2C(=O)C(C)(OC(=O)CCC(=O)OC)C(=O)C(Br)=C2C=C1c1ccc(OC)cc1 (stereo not drawn) is 4.8-fold lower in IC50: 13.3 µM for the first, 2.79 µM for the second. The second is the more potent here.

Cc1nnc(N/N=C\c2ccc(-c3cccc(C(=O)O)c3)o2)n1N and COc1cccc(-c2c(C(=O)N/N=C/c3ccc(C)s3)nnn2-c2nonc2N)c1 are within 1.5-fold of each other in IC50: 4.75 µM for the first, 6.69 µM for the second.

First: Cc1cccc(C2(c3cccc(C)c3)CC2C(=O)Nc2ccc([N+](=O)[O-])cc2O)c1 (stereo not drawn)
Second: Cc1cc(O)c(C(C)C)cc1N=Cc1ccc([N+](=O)[O-])cc1
The IC50 of the first is 1.9-fold higher: 13.2 µM for the first, 6.99 µM for the second.

First: CN(C)S(=O)(=O)c1cccc(-n2sc3ccccc3c2=O)c1
Second: O=c1c2cc([N+](=O)[O-])ccc2sn1-c1ccccc1
The IC50 of the first is 2.5-fold lower: 2.08 µM for the first, 5.27 µM for the second.

Compared with CN(C)c1ncc(C2=C(Cl)C(=O)C(N3CCCC3)=C(Cl)C2=O)s1, CC1COCC(C)N1C1=C(Cl)C(=O)c2ccccc2C1=O (stereo not drawn) is 2.2-fold higher in IC50: 3.32 µM for the first, 7.19 µM for the second.

Compared with O=[N+]([O-])c1ccc(N/N=C/c2ccc(O)c(O)c2O)c(S(=O)(=O)N2CCOCC2)c1, O=C1C(=Cc2cccc(O)c2O)SC(=S)N1CCCN1CCOCC1 is 1.6-fold higher in IC50: 8.74 µM for the first, 14.1 µM for the second.

Compared with COc1cc(C(=O)O/N=C2\C=CC(=O)C=C2C)cc(OC)c1OC, COc1ccc(N2CSC3=C(C#N)C(c4ccc(OC)c(OC)c4)CC(=O)N3C2)c(OC)c1 (stereo not drawn) is 2.7-fold lower in IC50: 14.1 µM for the first, 5.21 µM for the second. The second is the more potent here.

First: CCCCC1C(=O)N(c2ccccc2)N(c2ccc(O)cc2)C1=O (stereo not drawn)
Second: O=C1C(Cl)=C(NCCc2ccccc2)C(=O)c2ccccc21
The IC50 of the first is 3.8-fold higher: 12.5 µM for the first, 3.32 µM for the second.

Cc1[nH]c2ccccc2c1/C=N/NC(=O)c1cccc(S(=O)(=O)Nc2ccccc2Cl)c1 and Cc1cccc(NC2=C(NC(=O)c3ccccc3)C(=O)c3ccccc3C2=O)c1 are within 1.5-fold of each other in IC50: 8.71 µM for the first, 10.6 µM for the second.

Compared with CCN(CC)CCn1c2ccccc2c(=O)c2c(O)ccc(O)c21, CN(C)C=Nc1ccc2nc3c(cc2c1)[nH]c1ccccc13 is 4.2-fold higher in IC50: 2.39 µM for the first, 9.98 µM for the second. The first is the more potent here.

Compared with Cc1c(/C=C/C(=O)c2ccc(Cl)s2)cnn1C, Cc1cc(C)c2c(=O)n(CC(=O)Nc3cccc(Cl)c3C)sc2n1 is 1.7-fold lower in IC50: 9.12 µM for the first, 5.51 µM for the second. The second is the more potent here.

S=C(NN=Cc1ccccn1)N(Cc1ccccn1)Cc1ccccn1 and COc1cccc(/C=N/NC(=O)CSc2cccc3cccnc23)c1 are within 1.5-fold of each other in IC50: 4.66 µM for the first, 5.46 µM for the second.

Going from O=c1c2cc(F)ccc2sn1-c1ccccc1Cl to Cc1ccccc1OCC(=O)N/N=C/c1ccc(Sc2nc3ccccc3s2)o1, the IC50 rises from 4.29 µM to 16.8 µM (3.9-fold). The first is the more potent here.

Compared with COC(=O)c1cc2c(n1S(=O)(=O)c1ccc(C)cc1)C(=O)C(=O)c1[nH]cc(C(=O)OCc3ccccc3)c1-2, Cc1cc(C)c(S(=O)(=O)Nc2cc(SCC(=O)O)c(O)c3ccccc23)cc1C is 13-fold lower in IC50: 15.8 µM for the first, 1.19 µM for the second.

CC(C)(C)c1ccc(C(=O)Nc2sc3c(c2C(=O)O)CCC3)cc1 and Oc1ccc(-c2cn3c(n2)SCC3)cc1O are within 1.5-fold of each other in IC50: 12.7 µM for the first, 11.5 µM for the second.

Going from Nc1cc(N)c(OCC(F)(F)F)cc1OCC(F)(F)F to COc1cc(N=c2ssnc2Cl)cc(OC)c1, the IC50 rises from 1.61 µM to 13.2 µM (8.2-fold). The first is the more potent here.

COc1cc(OC)c(C2CC(=O)N3CN(c4ccccc4)CSC3=C2C#N)cc1OC (stereo not drawn) and Cc1ccc2nc3sc(C(=O)N4CCOCC4)c(N)c3cc2c1 are within 1.5-fold of each other in IC50: 11.5 µM for the first, 12.9 µM for the second.

For Oc1ccc(C2C[C@H]3CC[C@@H]2C3)cc1O (stereo partly drawn), the IC50 was 5.71 µM.

O=C(CN1CCN(c2ccc(O)cc2)CC1)Nc1cc(S(=O)(=O)N2CCOCC2)ccc1Cl was tested, and the IC50 was “inactive”.
For CN1CCN(C(=S)c2ccc([N+](=O)[O-])cc2)CC1, the IC50 was “inactive”.
COc1cc(NCCCn2cnc3c(OCc4ccccc4)ncnc32)cc(OC)c1OC was tested, and the IC50 was > 80 µM (inactive).
CCOC(=O)c1ccc(-n2c(N)c(C(=O)NCC3CCCO3)sc2=S)cc1 (stereo not drawn) was tested, and the IC50 was “inactive”.
For C[c-]1[c-](C)[c-](C)[c-](C)[c-]1C.[Fe].c1cc2nccc(N3CCCC3)[c-]2c1 (stereo not drawn), the IC50 was “inactive”.
In the case of COc1cc(NCc2ccccc2)c2ncn(C(C)C)c2c1, the IC50 is reported as “inactive”.
